# Laboratory results taken from PMC4029847 (Journal of clinical pharmacology, 2013).
# Molecular target: T1, OATP1A2 (Homo sapiens, UniProt P46721)
# T1 sequence (P46721 1-670): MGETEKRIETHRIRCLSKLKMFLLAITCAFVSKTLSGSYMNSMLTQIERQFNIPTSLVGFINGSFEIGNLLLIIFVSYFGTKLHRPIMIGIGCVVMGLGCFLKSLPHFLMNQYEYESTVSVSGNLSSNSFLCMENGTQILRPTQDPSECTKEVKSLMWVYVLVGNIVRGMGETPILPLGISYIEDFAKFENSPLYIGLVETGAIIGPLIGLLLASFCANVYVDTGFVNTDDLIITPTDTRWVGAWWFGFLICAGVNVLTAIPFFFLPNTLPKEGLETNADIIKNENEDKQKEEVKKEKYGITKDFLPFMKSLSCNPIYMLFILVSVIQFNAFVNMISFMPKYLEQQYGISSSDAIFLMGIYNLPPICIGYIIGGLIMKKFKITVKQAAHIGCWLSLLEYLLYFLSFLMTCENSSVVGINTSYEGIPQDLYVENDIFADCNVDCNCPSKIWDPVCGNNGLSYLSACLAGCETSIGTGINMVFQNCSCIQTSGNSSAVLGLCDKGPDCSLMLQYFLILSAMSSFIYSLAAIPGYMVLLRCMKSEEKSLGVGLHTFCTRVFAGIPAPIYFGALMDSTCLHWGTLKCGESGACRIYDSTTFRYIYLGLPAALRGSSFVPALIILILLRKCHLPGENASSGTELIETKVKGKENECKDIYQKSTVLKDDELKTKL
# Assay: Inhibition of fexofenadine uptake in OATP1A2-transfected HEK293T/17 cells
# Format: cell-based
# Details: inhibitor 250 μmol/l, fexofenadine 5 μmol/l, 30 min
smiles,measurement,value
"O=C1OC(c2ccc(O)c(S(=O)(=O)O)c2)(c2ccc(O)c(S(=O)(=O)O)c2)c2c(Br)c(Br)c(Br)c(Br)c21 [BSP, bromosulfophthalein]",Inhibition of fexofenadine uptake,did not inhibit
